Results as given in PubChem BioAssay (NCI).
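Dose response: 5 concentrations. Exposure: 48 h. Format: 96-well plates. Endpoint: linear interpolation; highest concentration if not reached. GI50 is the concentration that inhibits growth by half. TGI: total growth inhibition.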

Tests used:
Assay in all cases: NCI anticancer screen, dose series, 48 h
SK-MEL-5 melanoma = test system: SK-MEL-5 melanoma
SK-MEL-28 melanoma = test system: SK-MEL-28 melanoma
TK-10 renal = test system: TK-10 renal
OVCAR-8 ovarian = test system: OVCAR-8 ovarian
SNB-19 CNS = test system: SNB-19 CNS
HL-60(TB) leukemia = test system: HL-60(TB) leukemia
SK-MEL-2 melanoma = test system: SK-MEL-2 melanoma
SF-295 CNS = test system: SF-295 CNS
NCI-H460 lung = test system: NCI-H460 lung
SR leukemia = test system: SR leukemia

| SMILES | TGI (SK-MEL-5 melanoma) [µM] | TGI (SK-MEL-28 melanoma) [µM] | TGI (TK-10 renal) [µM] | TGI (OVCAR-8 ovarian) [µM] | TGI (SNB-19 CNS) [µM] | TGI (HL-60(TB) leukemia) [µM] | TGI (SK-MEL-2 melanoma) [µM] | TGI (SF-295 CNS) [µM] | TGI (NCI-H460 lung) [µM] | TGI (SR leukemia) [µM] | GI50 (SK-MEL-5 melanoma) [µM] | GI50 (SK-MEL-28 melanoma) [µM] | GI50 (TK-10 renal) [µM] | GI50 (OVCAR-8 ovarian) [µM] | GI50 (SNB-19 CNS) [µM] | GI50 (HL-60(TB) leukemia) [µM] | GI50 (SK-MEL-2 melanoma) [µM] | GI50 (SF-295 CNS) [µM] | GI50 (NCI-H460 lung) [µM] | GI50 (SR leukemia) [µM] |
| --- | --- | --- | --- | --- | --- | --- | --- | --- | --- | --- | --- | --- | --- | --- | --- | --- | --- | --- | --- | --- |
| CC(C)=CCC/C(C)=C/COc1c2ccoc2cc2oc(=O)ccc12 | 28.6 | > 100 | > 100 | > 100 | > 100 | 50.5 | 38.3 | 75.3 | > 100 | 43.1 |  |  |  |  |  |  |  |  |  |  |
| CCCCCCCCCCCC[C@@H](O)[C@H]1CCC([C@H](O)CCCCC(=O)CCCCCCCC2=C[C@H](C)OC2=O)O1 (stereo partly specified) | > 20.2 | > 50 | > 50 | > 50 | > 50 | > 28.8 | > 50 | > 50 | > 50 | 10.1 |  |  |  |  |  |  |  |  |  |  |
| COCN1COCN=C1NC#N | > 100 | > 100 | > 100 | > 100 | > 100 | > 100 | > 100 | > 100 | > 100 | > 100 |  |  |  |  |  |  |  |  |  |  |
| NC1=NS(=O)(=O)Nc2nc(-c3ccccc3)[nH]c21 | > 100 | > 100 | > 100 | > 100 | > 100 | > 100 | > 100 | > 100 | > 100 | > 100 |  |  |  |  |  |  |  |  |  |  |
| O=C1CC[C@@]2(O)[C@H]3Cc4ccc(-c5ccccc5)c5c4[C@@]2(CCN3CC2CC2)[C@H]1O5 | 28.6 | > 100 | 36.4 | 32.4 | 59.6 | 37.3 | 33.7 | 33.6 | 35.5 | > 100 |  |  |  |  |  |  |  |  |  |  |
| Nc1[nH]nc2nc3ccccc3nc12 | > 100 | > 100 | > 100 | > 100 | > 100 | > 100 | > 100 | > 100 | > 100 | 75.2 |  |  |  |  |  |  |  |  |  |  |
| NNC(=S)NCCNC(=S)NN | > 100 | > 100 |  |  | > 100 | > 100 | > 100 | > 100 | > 100 | > 100 |  |  |  |  |  |  |  |  |  |  |
| O=C(N/N=C\c1ccc(N(CCCl)CCCl)cc1[N+](=O)[O-])c1cccnc1 | > 100 | > 100 | > 100 | > 100 | > 100 | > 100 | > 100 | > 100 | > 100 | > 100 | > 100 | > 100 | > 100 | > 100 | > 100 | > 100 | > 100 | > 100 | > 100 | > 100 |
| COC(=O)c1c(O)ccc2[nH]c3c(O)c4ccccc4cc3c12 | > 100 | 76.4 | > 100 | 48.9 | > 100 | 37.5 | 55 | 38.1 | 63.5 | > 100 |  |  |  |  |  |  |  |  |  |  |
| COc1ccc(N=NC(=O)NC(CC(C)C)C(N)=O)cc1 (stereo unspecified) | > 100 | > 100 | > 31.6 | > 100 | > 100 | > 100 | > 100 | > 100 | > 31.6 | > 100 |  |  |  |  |  |  |  |  |  |  |
| Cn1cc(-c2ccc3cc(-c4ccc(CC(=O)Nc5cc(C(C)(C)C)on5)cc4)cnc3c2)cn1 | 6.55 | 5.25 | 10.4 | > 100 | 8.68 | 7.45 | 12.4 | 6.74 | 2.55 | > 100 | 2.31 | 1.95 | 1.63 | 2.16 | 2.18 | 2.66 | 0.922 | 1.65 | 0.84 | 3.07 |
| CC(=O)Oc1c2c(c3n(c1=O)CCCC3)C(=O)N(c1ccccc1)C2=O | > 100 | > 100 | > 100 | > 100 | > 100 | > 100 | > 100 | > 100 | > 100 | > 100 |  |  |  |  |  |  |  |  |  |  |
| CC(=O)Oc1ccc2c(c1)CC[C@@H]1C2[C@@H](O[N+](=O)[O-])C[C@@]2(C)C1CC[C@@H]2O[N+](=O)[O-] (stereo partly specified) | 22.7 | 28.7 | 35.7 | 33.4 | 32.4 | 53.6 | 31.5 | 23.7 | 28.7 | 27.7 |  |  |  |  |  |  |  |  |  |  |
| O=C(N=c1ccc2nc(=O)[nH]n(O)c-2c1)C(F)(F)F | > 100 | > 100 | > 100 | > 100 | > 100 | > 100 | > 100 | > 100 | > 100 | > 100 |  |  |  |  |  |  |  |  |  |  |
| O=C(CCC=C(S(=O)(=O)c1ccccc1)S(=O)(=O)c1ccccc1)c1ccccc1 | 19.8 | 34.6 | 19.3 | 16.7 | 28.4 | 5.2 | 9.7 | 60.9 | 33.8 | 82.6 |  |  |  |  |  |  |  |  |  |  |
| CCOC(=O)C(Cc1ccc(OC(=O)OC(C)(C)C)cc1)NC(=O)OC(C)(C)C (stereo unspecified) | > 100 | > 100 | > 100 | > 100 | > 100 | 80.1 | > 100 | > 100 | > 100 | 67.5 |  |  |  |  |  |  |  |  |  |  |
| COC(=O)c1ccc(C)cc1CC1Cc2ccc(C)cc2C1=O (stereo unspecified) | 19.6 | 76.7 | 46.8 | 57.5 | > 100 | 10.7 | 30.6 | 96.7 | 31.3 | 8.68 |  |  |  |  |  |  |  |  |  |  |
| CC(C)=CCc1[nH]c2ccccc2c1C1=C(O)C(=O)C(c2c(CC=C(C)C)[nH]c3ccccc23)=C(O)C1=O | 4.12 | 2.9 |  | 7.78 | 16.4 | 5.6 | 3.95 | 6.5 | 3.87 | 4.44 |  |  |  |  |  |  |  |  |  |  |
| Cn1c(CO)ccc1-c1ccc(-c2ccc[se]2)[se]1 | > 90.2 | > 100 |  | > 100 | > 100 | > 63.2 | > 100 | > 100 | > 100 | > 100 |  |  |  |  |  |  |  |  |  |  |
